The values below are quoted from earlier work in patent US6352979B1, “Method of treating snakebite and complications resulting therefrom” (priority 2001, dated 2002).

The test system of one series is mice. Conditions: doses higher than 3750 mg/kg (accepted oral LD50 for common table salt).
Another series concerns humans. Conditions: doses exceeding 40 g/m^2.
A further series has as its system dogs. The note with it: doses higher than 3750 mg/kg (accepted oral LD50 for common table salt).

In the case of `O=S(=O)([O-])CCSSCCS(=O)(=O)[O-].[Na+].[Na+]` [Dimesna, disodium 2,2′-dithiobis ethane sulfonate], the “adverse effects after intravenous administration” value with mice and in the series on dogs was “no adverse effects” each time. For the same compound, the “adverse effects after administration to humans” value with humans was “no adverse effects”.

Take `[Cl-].[Na+]` [common table salt]: the “accepted oral LD50” value is 3750 mg/kg.
